# Values joined by “and” are separate entries in the source; they are usually repeats but may differ in a detail not shown here. Identical values can stand only once.
# Tested on: ANGIOTENSIN II (AII) VASOPRESSOR RESPONSE
# Assay: AII Challenge: angiotensin II (AII) vasopressor response in conscious rats
# Format: in vivo
# Parameters: Response After AII / Change / Average Change: unit not given here
# Conditions: 10 mg/kg i.v.; for Change / Response After AII / Control Before AII: individual rat, listed as Ex. 12; for Control Before AII: in mmHg (unit assumed); for % Inhibition / Average Change: n = 2
# Source text: By administering a compound of this invention to a rat, and then challenging with angiotensin II, a blockage of the vasopressor response is realized.
# Conscious Male Okamoto-Aoki SHR, 16-20 weeks old, weighing approximately 330 g are purchased from Charles River Labs (Wilmington, Mass.). Conscious rats are restrained in a supine position with elastic tape. The area at the base of the tail is locally anesthetized by subcutaneous infiltration with 2% procaine. The ventral caudal artery and vein are isolated, and a cannula made of polyethylene (PE) 10-20 tubing (fused together by heat) is passed into the lower abdominal aorta and vena cava, respectively. The cannula is secured, heparinized (1,000 I.U./ml), sealed and the wound is closed. The animals are placed in plastic restraining cages in an upright position. The cannula is attached to s Statham P23Db pressure transducer, and pulsatile blood pressure is recorded to 10-15 minutes with a Gould Brush recorder. (Chan et al., (Drug Development Res., 18:75-94, 1989).
# Angiotensin II (human sequence, Sigma Chem. Co., St. Louis, Mo.) of 0.05 and 0.1 ug/kg i.v. is injected into all rats (predosing response.). Then a test compound, vehicle or a known angiotensin II antagonist is administered i.v., i.p. or orally to each set of rats. The two doses of angiotensin II are given to each rat again at 30, 60, 90, 120, 180, 240 and 300 minutes post dosing the compound or vehicle. The vasopressor response of angiotensin II by a compound is calculated using the vasopressor response (increase in systolic blood pressure) of angiotensin II of each rat predosing the compound as 100%. A compound is considered active if at 30 mg/kg i.v. it antagonized at least 50% of the response.
# [1] = AII 0.05 mcg/kg, 30 min post dose
# [2] = AII 0.05 mcg/kg, 60 min post dose
# [3] = AII 0.05 mcg/kg, 90 min post dose
# [4] = AII 0.05 mcg/kg, 120 min post dose
# [5] = AII 0.05 mcg/kg, 180 min post dose
# [6] = AII 0.05 mcg/kg, 240 min post dose
# [7] = AII 0.05 mcg/kg, 300 min post dose
# [8] = AII 0.1 mcg/kg, 30 min post dose
# [9] = AII 0.1 mcg/kg, 60 min post dose
# [10] = AII 0.1 mcg/kg, 90 min post dose
# [11] = AII 0.1 mcg/kg, 120 min post dose
# [12] = AII 0.1 mcg/kg, 180 min post dose
# [13] = AII 0.1 mcg/kg, 240 min post dose
# [14] = AII 0.1 mcg/kg, 300 min post dose
smiles,measurement,setting,value
"CCCCc1nc2cc(-c3ccc(F)cc3)nn2c(=O)n1Cc1ccc(-c2ccccc2-c2nnn[nH]2)cc1 [Example 12, 2-Butyl-7-(4-fluorophenyl)-3-[[2'-(1H-tetrazol-5-yl)[1,1'-biphenyl]-4-yl]methyl]pyrazolo[1,5-a]-1,3,5-triazin-4(3H)-one]",Change,[1],10 and 20
same,Response After AII,[1],205 and 245
same,Control Before AII,[1],195 and 225
same,% Inhibition,[1],73%
same,Average Change,[1],15
same,Change,[2],20 and 10
same,Response After AII,[2],200 and 240
same,Control Before AII,[2],180 and 230
same,% Inhibition,[2],7%
same,Average Change,[2],15
same,Change,[3],20 and 25
same,Response After AII,[3],185 and 250
same,Control Before AII,[3],165 and 225
same,% Inhibition,[3],59%
same,Average Change,[3],22.5
same,Change,[4],25 and 30
same,Response After AII,[4],185 and 255
same,Control Before AII,[4],160 and 225
same,% Inhibition,[4],50%
same,Average Change,[4],27.5
same,Change,[5],10 and 33
same,Response After AII,[5],195 and 240
same,Control Before AII,[5],185 and 207
same,% Inhibition,[5],61%
same,Average Change,[5],21.5
same,Change,[6],10 and 35
same,Response After AII,[6],195 and 255
same,Control Before AII,[6],185 and 220
same,% Inhibition,[6],59%
same,Average Change,[6],22.5
same,Change,[7],15 and 35
same,Response After AII,[7],200 and 260
same,Control Before AII,[7],185 and 225
same,% Inhibition,[7],55%
same,Average Change,[7],25
same,Change,[8],10 and 15
same,Response After AII,[8],210 and 250
same,Control Before AII,[8],200 and 235
same,% Inhibition,[8],76%
same,Average Change,[8],12.5
same,Change,[9],15 and 30
same,Response After AII,[9],205 and 250
same,Control Before AII,[9],190 and 220
same,% Inhibition,[9],57%
same,Average Change,[9],22.5
same,Change,[10],30 and 25
same,Response After AII,[10],200 and 260
same,Control Before AII,[10],170 and 235
same,% Inhibition,[10],48%
same,Average Change,[10],27.5
same,Change,[11],25 and 42
same,Response After AII,[11],195 and 267
same,Control Before AII,[11],170 and 225
same,% Inhibition,[11],36%
same,Average Change,[11],33.5
same,Change,[12],15 and 40
same,Response After AII,[12],200 and 250
same,Control Before AII,[12],185 and 210
same,% Inhibition,[12],48%
same,Average Change,[12],27.5
same,Change,[13],15 and 45
same,Response After AII,[13],200 and 270
same,Control Before AII,[13],185 and 225
same,% Inhibition,[13],43%
same,Average Change,[13],30
same,Change,[14],20 and 50
same,Response After AII,[14],205 and 275
same,Control Before AII,[14],185 and 225
same,% Inhibition,[14],33%
same,Average Change,[14],35

# — patent publication US5358947A, “Angiotensin II receptor blocking 2,3-substituted pyrazolo[1,5-a]-1,3,5-triazin-4(3H)-ones” (American Cyanamid Company, priority 1993, dated 1994)
